Tested on: HCT116 colorectal cancer cells
Test: Cisplatin sensitization assay (96 h cell viability MTS);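 further: Test-compound concentration that lowers the Cisplatin IC50 by a set fold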
Type: cell-based
Settings: compound and Cisplatin added simultaneously, Cisplatin sensitization value
In short: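 Viability read by MTS (1 h at 37° C) after 96 h co-exposure at 37° C, 5% CO2. Test compound and cisplatin were dosed simultaneously in a full concentration matrix, each 2-fold serially diluted from 10 μM final; sensitization values binned in μM.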

C[C@H]1CN(C2COC2)CCN1c1ccncc1NC(=O)c1c(N)nn2cc(F)cnc12 [I-N-24, (S)-2-amino-6-fluoro-N-(4-(2-methyl-4-(oxetan-3-yl)piperazin-1-yl)pyridin-3-yl)pyrazolo[1,5-a]pyrimidine-3-carboxamide] was tested, and the “Cisplatin Sensitization Assay” value was “+++ (Cisplatin sensitization value of <0.02 μM)”.
With Nc1nn2cc(F)cnc2c1C(=O)Nc1cnccc1-n1cccn1 [I-N-26, N-(4-(1H-pyrazol-1-yl)pyridin-3-yl)-2-amino-6-fluoropyrazolo[1,5-a]pyrimidine-3-carboxamide] the “Cisplatin Sensitization Assay” value was “+ (Cisplatin sensitization value>0.2 μM but <5 μM)”.
In the case of Nc1nn2cc(F)cnc2c1C(=O)Nc1cnccc1-n1cnc(C(F)(F)F)c1 [I-N-27, 2-amino-6-fluoro-N-(4-(4-(trifluoromethyl)-1H-imidazol-1-yl)pyridin-3-yl)pyrazolo[1,5-a]pyrimidine-3-carboxamide], the “Cisplatin Sensitization Assay” value is reported as “++ (Cisplatin sensitization value>0.02 μM but <0.2 μM)”.
With Cc1nccn1-c1ccncc1NC(=O)c1c(N)nn2cc(F)cnc12 [I-N-28, 2-amino-6-fluoro-N-(4-(2-methyl-1H-imidazol-1-yl)pyridin-3-yl)pyrazolo[1,5-a]pyrimidine-3-carboxamide] the “Cisplatin Sensitization Assay” value was “+++ (Cisplatin sensitization value of <0.02 μM)”.
Nc1nn2cc(Cl)cnc2c1C(=O)Nc1cnccc1-n1ccnc1 [I-N-29, N-(4-(1H-imidazol-1-yl)pyridin-3-yl)-2-amino-6-chloropyrazolo[1,5-a]pyrimidine-3-carboxamide] was tested, and the “Cisplatin Sensitization Assay” value was “++ (Cisplatin sensitization value>0.02 μM but <0.2 μM)”.
Cc1nc(C(F)(F)F)cn1-c1ccncc1NC(=O)c1c(N)nn2cc(F)cnc12 [I-N-30, 2-amino-6-fluoro-N-(4-(2-methyl-4-(trifluoromethyl)-1H-imidazol-1-yl)pyridin-3-yl)pyrazolo[1,5-a]pyrimidine-3-carboxamide] was tested, and the “Cisplatin Sensitization Assay” value was “++ (Cisplatin sensitization value>0.02 μM but <0.2 μM)”.
For Nc1nn2cc(F)cnc2c1C(=O)Nc1cnccc1N1CCN(C2COC2)C2CC21 (stereo not drawn) [I-N-31, 2-amino-6-fluoro-N-(4-(5-(oxetan-3-yl)-2,5-diazabicyclo[4.1.0]heptan-2-yl)pyridin-3-yl)pyrazolo[1,5-a]pyrimidine-3-carboxamide], the “Cisplatin Sensitization Assay” value was “+ (Cisplatin sensitization value>0.2 μM but <5 μM)”.
For Nc1nn2cc(F)cnc2c1C(=O)Nc1cncc(C2CC2)c1N1CCN(C2COC2)CC1 [I-N-32, 2-amino-N-(5-cyclopropyl-4-(4-(oxetan-3-yl)piperazin-1-yl)pyridin-3-yl)-6-fluoropyrazolo[1,5-a]pyrimidine-3-carboxamide], the “Cisplatin Sensitization Assay” value was “++ (Cisplatin sensitization value>0.02 μM but <0.2 μM)”.
For Nc1nn2cc(F)cnc2c1C(=O)Nc1cnccc1N1CCN(C2CC2)CC1 [I-N-33, 2-amino-N-(4-(4-cyclopropylpiperazin-1-yl)pyridin-3-yl)-6-fluoropyrazolo[1,5-a]pyrimidine-3-carboxamide], the “Cisplatin Sensitization Assay” value was “+ (Cisplatin sensitization value>0.2 μM but <5 μM)”.
With CC(C)(C)N1CCN(c2ccncc2NC(=O)c2c(N)nn3cc(Cl)cnc23)CC1 [I-N-34, 2-amino-N-(4-(4-(tert-butyl)piperazin-1-yl)pyridin-3-yl)-6-chloropyrazolo[1,5-a]pyrimidine-3-carboxamide] the “Cisplatin Sensitization Assay” value was “++ (Cisplatin sensitization value>0.02 μM but <0.2 μM)”.
For CN(C)[C@H]1CCN(c2ccncc2NC(=O)c2c(N)nn3cc(Cl)cnc23)C[C@@H]1O [I-N-35, 2-amino-6-chloro-N-(4-((3S,4S)-4-(dimethylamino)-3-hydroxypiperidin-1-yl)pyridin-3-yl)pyrazolo[1,5-a]pyrimidine-3-carboxamide], the “Cisplatin Sensitization Assay” value was “+ (Cisplatin sensitization value>0.2 μM but <5 μM)”.
For CN(C)CC1(O)CCN(c2ccncc2NC(=O)c2c(N)nn3cc(Cl)cnc23)CC1 [I-N-36, 2-amino-6-chloro-N-(4-(4-((dimethylamino)methyl)-4-hydroxypiperidin-1-yl)pyridin-3-yl)pyrazolo[1,5-a]pyrimidine-3-carboxamide], the “Cisplatin Sensitization Assay” value was “++ (Cisplatin sensitization value>0.02 μM but <0.2 μM)”.
In the case of CN(C)C1CCN(c2ccncc2NC(=O)c2c(N)nn3cc(Cl)cnc23)CC1 [I-N-37, 2-amino-6-chloro-N-(4-(4-(dimethylamino)piperidin-1-yl)pyridin-3-yl)pyrazolo[1,5-a]pyrimidine-3-carboxamide], the “Cisplatin Sensitization Assay” value is reported as “++ (Cisplatin sensitization value>0.02 μM but <0.2 μM)”.
Nc1nn2cc(F)cnc2c1C(=O)Nc1cncc(Cl)c1N1CCN2CCN(C3COC3)CC2C1 (stereo not drawn) [I-N-38, 2-amino-N-(5-chloro-4-(8-(oxetan-3-yl)hexahydro-1H-pyrazino[1,2-a]pyrazin-2(6H)-yl)pyridin-3-yl)-6-fluoropyrazolo[1,5-a]pyrimidine-3-carboxamide] was tested, and the “Cisplatin Sensitization Assay” value was “++ (Cisplatin sensitization value>0.02 μM but <0.2 μM)”.
CC(C)N1CCN(c2ccncc2NC(=O)c2c(N)nn3cc(Cl)cnc23)CC1 [I-N-39, 2-amino-6-chloro-N-(4-(4-isopropylpiperazin-1-yl)pyridin-3-yl)pyrazolo[1,5-a]pyrimidine-3-carboxamide] was tested, and the “Cisplatin Sensitization Assay” value was “++ (Cisplatin sensitization value>0.02 μM but <0.2 μM)”.
CN(C)C1CCCN(c2ccncc2NC(=O)c2c(N)nn3cc(Cl)cnc23)C1 (stereo not drawn) [I-N-40, 2-amino-6-chloro-N-(4-(3-(dimethylamino)piperidin-1-yl)pyridin-3-yl)pyrazolo[1,5-a]pyrimidine-3-carboxamide] was tested, and the “Cisplatin Sensitization Assay” value was “++ (Cisplatin sensitization value>0.02 μM but <0.2 μM)”.
For CN1CCN(c2c(Cl)cncc2NC(=O)c2c(N)nn3cc(Cl)cnc23)CC1 [I-N-41, 2-amino-6-chloro-N-(5-chloro-4-(4-methylpiperazin-1-yl)pyridin-3-yl)pyrazolo[1,5-a]pyrimidine-3-carboxamide], the “Cisplatin Sensitization Assay” value was “+++ (Cisplatin sensitization value of <0.02 μM)”.
With CN1CCCN(c2ccncc2NC(=O)c2c(N)nn3cc(Cl)cnc23)CC1 [I-N-43, 2-amino-6-chloro-N-(4-(4-methyl-1,4-diazepan-1-yl)pyridin-3-yl)pyrazolo[1,5-a]pyrimidine-3-carboxamide] the “Cisplatin Sensitization Assay” value was “++ (Cisplatin sensitization value>0.02 μM but <0.2 μM)”.
With Nc1nn2cc(Cl)cnc2c1C(=O)Nc1cnccc1N1CCn2ccnc2C1 [I-N-44, 2-amino-6-chloro-N-(4-(5,6-dihydroimidazo[1,2-a]pyrazin-7(8H)-yl)pyridin-3-yl)pyrazolo[1,5-a]pyrimidine-3-carboxamide] the “Cisplatin Sensitization Assay” value was “++ (Cisplatin sensitization value>0.02 μM but <0.2 μM)”.
In the case of CN(C)CC1CCN(c2ccncc2NC(=O)c2c(N)nn3cc(Cl)cnc23)CC1 [I-N-45, 2-amino-6-chloro-N-(4-(4-((dimethylamino)methyl)piperidin-1-yl)pyridin-3-yl)pyrazolo[1,5-a]pyrimidine-3-carboxamide], the “Cisplatin Sensitization Assay” value is reported as “++ (Cisplatin sensitization value>0.02 μM but <0.2 μM)”.
With COC1(CN(C)C)CCN(c2ccncc2NC(=O)c2c(N)nn3cc(Cl)cnc23)CC1 [I-N-46, 2-amino-6-chloro-N-(4-(4-((dimethylamino)methyl)-4-methoxypiperidin-1-yl)pyridin-3-yl)pyrazolo[1,5-a]pyrimidine-3-carboxamide] the “Cisplatin Sensitization Assay” value was “+++ (Cisplatin sensitization value of <0.02 μM)”.
